Data taken from US11672834B2, “Probiotic and prebiotic compositions, and methods of use thereof for modulation of the microbiome” (Evelo Biosciences, Inc., priority 2014, dated 2023).

Key:
[1] = tested on: healthy, adult volunteers; conditions: human, in vivo, 28 days
Procedure: D-xylose is a carbon source generally preferred by anaerobic bacteria. […] A parallel, double-blind, 5 cohort escalation food safety study was conducted to examine D-xylose in normal human volunteers. The study was a double-blind, single-center, parallel group study designed to evaluate the tolerability and potential microbiome changes induced by ingestion of D-xylose at 5 different amounts in healthy, adult volunteers enrolled at 1 study center in the United States (US).
Subjects were screened for eligibility within 21 days prior to the first planned ingestion of study sweetener on Day 1 (Baseline). […]
Subjects returned to the study center weekly on Days 8, 15, 22, and 28 for ingestion, tolerability, and compliance evaluations. Safety was evaluated on a continual basis through adverse events (AE) monitoring, clinical laboratory measurements, vital sign monitoring, physical examinations, electrocardiograms (ECGs), telephone follow-up, and electronic subject ingestion diaries. Stool was collected pre-ingestion and at pre-specified time points, and post-ingestion samples were evaluated for changes in the gut microbiome compared with Baseline for all subjects. […]
Safety was evaluated on a continual basis through AE monitoring, clinical laboratory measurements, vital sign monitoring, physical examinations, ECGs, telephone follow-up, and electronic subject ingestion diaries. […]

[2] = tested on: anaerobic commensal bacteria; experiment: Carbon source utilization by commensal bacteria (Biolog PM01/PM02A plates, OD 750 nm); format: cell-based
[3] = tested on: healthy, adult volunteers; experiment: Normal human volunteer study of D-xylose: immunology (CRP, cytokines, T-cell markers) and gut microbiome; format: in vivo; conditions: for effect on gut microbiome (alpha diversity, community composition): stool 16S, normal individuals
From the text: Blood was collected at pre-specified pre- and post-ingestion time points to evaluate C-reactive protein (CRP), serum cytokines (tumor necrosis factor alpha [TNF-α], interleukin [IL]-2, IL-6, interferon gamma [IFN-γ], and IL-10), and T-cell markers CD3, CD4, CD8, CD25, and FOXP3. Plasma was also stored and may be tested for biomarkers and/or metabolic markers for up to 7 years.
A total of 7 stool samples were expected to be collected for each subject. Evaluation of changes in the gut microbiome were evaluated in stool samples through taxonomic classification, relative and statistical differential abundance analyses by cohort and time point, an alpha diversity analysis calculated using the Shannon diversity index by cohort and time point, a beta diversity analysis using Bray-Curtis dissimilarity and Unifrac distance by subject and time point, and a principal coordinates analysis using the beta diversity data.
Summary statistics (n, mean, standard deviation, median, minimum, and maximum) were presented for serum concentrations of CRP, flow cytometry T-cell markers (CD3, CD4, CD8, CD25, and FOXP3), and cytokines (TNF-α, IL-2, IL-6, IFN-γ, and IL-10) as per their nominal time points.
A total of 344 stool samples were collected in OMNIgene•GUT collection kits and shipped to the GenoFIND laboratory for DNA extraction and V3-V4 16S amplicon sequencing. […] Numerous taxa were identified as differentially abundant, but this finding may be attributable to the relatively small sample sizes of each cohort. […] The impact of xylose on the microbiome under disease conditions remains to be determined.

[4] = Normal human volunteer study of D-xylose: pharmacokinetics (serum and urine D-xylose); format: in vivo; conditions: Day 15; 15 mg TID cohort; variability high
Procedure: Blood and urine were collected at pre-specified pre- and post-ingestion time points to measure D-xylose levels and to characterize the systemic absorption profiles of D-xylose. Serum D-xylose concentrations were summarized by cohort using nominal sample times according to actual amount received using summary statistics (n, coefficient of variation [CV], mean, standard deviation [SD], median, minimum, and maximum). Evidence for the occurrence of steady-state was assessed graphically by comparing the time course of either trough or 2-hour post-ingestion serum concentrations of D-xylose as different levels of D-xylose. Accumulation was assessed by comparing the 2-hour post-first-ingestion serum levels with those observed at Week 2 (Day 15) and Week 4 (Day 28). […] Urine PK parameters for D-xylose levels included Ae(0-t) (cumulative amount of sweetener recovered in urine) and percent sweetener amount excreted over a 5-hour period.

C57Bl/6 female mice = conditions: mouse, in vivo
From the text: The trillions of organisms forming the microbiome function as an organ system interconnected throughout the body. The possibility that modification of the microbiome in a given physical location may influence the microbiome at other sites in the body (distal augmentation) was investigated. Seven week old C57Bl/6 female mice were acclimatized for 7 days prior to the start of the study by daily handling and shuffling between cages. All mice were housed at three mice per cage in individually vented cages (Thoren, Hazleton, Pa.). At day 0, baseline fresh fecal pellets, and vaginal lavages with 100 μL of sterile double-distilled water were collected and immediately frozen at −80° C. for microbiome analysis. […] Water alone is not expected to influence the microbiome and acted as a negative control. […] The impact of oral vancomycin is therefore expected to be limited to the gastrointestinal tract such that microbiome changes elsewhere in the body (e.g. vagina) would be attributable to distal augmentation. At day 6, fresh fecal pellets and vaginal lavages with 100 μL of sterile double-distilled water were collected and immediately stored at −80° C. for microbiome analysis.
Isolation and sequencing of microbial DNA from the stool and vaginal samples was performed by DNA Genotek (Ottawa, ON, Canada). The V3-V4 region of the 16S ribosomal subunit was amplified with custom PCR primers and sequenced on an Illumina MiSeq to a minimum acceptable read depth of 25,000 sequences per sample. […] These OTU's were then assigned a curated taxonomic label based on the seven level SILVA taxonomy.

[5] = tested on: Tregs in the large intestine; conditions: mouse, in vivo; cited from earlier work
serum endotoxin = tested on: serum endotoxin
From the text: FIG. 1 is a graph depicting serum endotoxin levels (EU/ml) over time following treatment with xylose.

[6] = tested on: Blautia; Lactobacillus johnsonii; experiment: Sugar fermentation by Blautia versus Lactobacillus johnsonii (pH and optical density, media lacking glucose); format: cell-based
mice with GVHD = conditions: mouse, in vivo
tumors = conditions: oral administration; cited from earlier work

O=C[C@H](O)[C@@H](O)[C@H](O)CO [D-xylose]
subjects with at least 1 AE considered related to study sweetener [1]: 25.0% | use as carbon source by bacterial strains [2]: used as a carbon source by several bacterial strains | serum interferon gamma over time ([3]; 2 g and 15 g D-xylose cohorts): trend for reduced levels of serum interferon gamma over time | total T-cells or T-cell subsets over time ([3]; any D-xylose ingestion amount): No consistent or clinically meaningful changes over time | effect on gut microbiome (alpha diversity, community composition) [3]: no apparent significant impact on the intra-sample alpha diversity | accumulation ratio [4]: approximately 1.9 fold

CN[C@H](CC(C)C)C(=O)N[C@H]1C(=O)N[C@@H](CC(N)=O)C(=O)N[C@H]2C(=O)N[C@H]3C(=O)N[C@H](C(=O)N[C@H](C(=O)O)c4cc(O)cc(O)c4-c4cc3ccc4O)[C@H](O)c3ccc(c(Cl)c3)Oc3cc2cc(c3O[C@@H]2O[C@H](CO)[C@@H](O)[C@H](O)[C@H]2O[C@H]2C[C@](C)(N)[C@H](O)[C@H](C)O2)Oc2ccc(cc2Cl)[C@H]1O [Vancomycin, vancomycin]
impact on the microbiome of the gut (fecal samples, PCA at family level) (C57Bl/6 female mice): strong impact on the microbiome of the gut | median abundance of bacterial species detected in vaginal samples at day 6 that were not present at day 0 (C57Bl/6 female mice): approximately 0.00002% | day 0 to day 6 pattern in vaginal samples (PCA) (C57Bl/6 female mice; po): overall difference between the PBS and oral vancomycin groups

CC(=O)O [acetate]
numbers of Tregs in the large intestine [5]: restored normal numbers of Tregs in the large intestine

CCN1CCN(c2cc3c(cc2F)c(=O)c(C(=O)O)cn3C2CC2)CC1 [enrofloxacin, reference compound]
serum endotoxin levels after antibiotic treatment, recovery (serum endotoxin; mice, by day 14): return to baseline | serum endotoxin levels after antibiotic treatment (serum endotoxin; mice, measured 2 days after a 5 day course, at day 0): leads to an increase in serum endotoxin levels

CCC(=O)O [propionate]
numbers of Tregs in the large intestine [5]: restored normal numbers of Tregs in the large intestine

C[C@H](O)[C@H](O)[C@@H](O)[C@@H](O)C=O [rhamnose]
substrate fermentable by Blautia but not lactobacillus [6]: specifically augments Blautia but not lactobacillus

O=C[C@H](O)[C@@H](O)[C@H](O)CO [xylose]
Blautia in the intestinal flora (mice with GVHD): expansion of Blautia in the intestinal flora | survival of mice with GVHD (mice with GVHD): improved survival of mice with GVHD | effect on gut microbiome (alpha diversity, community composition) [3]: exerts subtle changes in the gut microbiome | substrate fermentable by Blautia but not lactobacillus [6]: specifically augments Blautia but not lactobacillus | basal levels of serum endotoxin (serum endotoxin; mouse, in vivo): reduces basal levels of serum endotoxin | effect on the endotoxin increase caused by cipro (serum endotoxin; mouse, in vivo): counteracts the endotoxin increase | effect on the endotoxin increase caused by enro (serum endotoxin; mouse, in vivo): not

Bacteroides
responsiveness to checkpoint inhibitor therapy in cancer (tumors): increases the responsiveness to checkpoint inhibitor therapy in cancer

Bifidobacterium
responsiveness to checkpoint inhibitor therapy in cancer (tumors): increases the responsiveness to checkpoint inhibitor therapy in cancer
